Data set [1] is described as follows: Plasma protein binding by equilibrium dialysis. The note with it: human plasma; for fraction unbound at 6 h, 3.44 uM / fraction unbound at 6 h: human, plasma. A general note: Equilibrium dialysis compares concentrations on both sides of a semipermeable membrane.
The subject of data set [2] is CYP3A4/5. Nature of the data set: Reversible CYP inhibition in human liver microsomes. Particulars: for pIC50: pH 7.4, probe midazolam (1′-hydroxylation), at approximately KM, IC50, Midazolam 1′-hydroxylation. (Liver microsomes are a subcellular fraction often used to study metabolism.)
The target of another data set is T1, OCT1 (Homo sapiens, UniProt O15245).
T1 construct: expressed in transfected cells; host or cells: HEK293
T1 sequence (O15245 1-554): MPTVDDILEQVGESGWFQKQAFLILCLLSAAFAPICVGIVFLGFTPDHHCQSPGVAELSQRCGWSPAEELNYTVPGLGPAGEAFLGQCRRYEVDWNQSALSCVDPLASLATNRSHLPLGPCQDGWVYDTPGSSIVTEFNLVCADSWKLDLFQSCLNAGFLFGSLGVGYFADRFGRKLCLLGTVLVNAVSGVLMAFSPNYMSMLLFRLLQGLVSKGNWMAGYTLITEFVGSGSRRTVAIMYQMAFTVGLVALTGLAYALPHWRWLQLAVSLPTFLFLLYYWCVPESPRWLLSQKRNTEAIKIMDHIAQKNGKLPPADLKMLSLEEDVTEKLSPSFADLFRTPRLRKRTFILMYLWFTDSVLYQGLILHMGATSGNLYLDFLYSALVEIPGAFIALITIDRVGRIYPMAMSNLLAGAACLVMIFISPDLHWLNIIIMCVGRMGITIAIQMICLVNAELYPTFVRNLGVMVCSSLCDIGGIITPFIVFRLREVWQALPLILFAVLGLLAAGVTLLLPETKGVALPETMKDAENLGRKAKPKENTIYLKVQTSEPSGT
In words: Transporter inhibition using transfected HEK293 cells. It is filed as in vitro ADME. The note with it: IC50, [14C]Metformin (10 µM).

Data set [3] is described as follows: Plasma protein binding by equilibrium dialysis. Particulars: dog plasma, 3.44 uM; for fraction unbound at 6 h, 3.44 uM: dog, plasma.
Data set [4] can be described thus: Rat 24-h continuous intravenous infusion GLP toxicity study. The note with it: in vivo. The data set is classed as in vivo, Sprague-Dawley rats.
The nature of data set [5]: Human blood hemocompatibility (hemolysis, flocculation).
In data set [6] the test system is CYP3A4/5. In words: Time-dependent inhibition of CYP enzymes in human liver microsomes. Particulars: pooled HLM.
In the next data set the target is T2, OCT2 (Homo sapiens, UniProt O15244).
T2 sequence (O15244 1-555): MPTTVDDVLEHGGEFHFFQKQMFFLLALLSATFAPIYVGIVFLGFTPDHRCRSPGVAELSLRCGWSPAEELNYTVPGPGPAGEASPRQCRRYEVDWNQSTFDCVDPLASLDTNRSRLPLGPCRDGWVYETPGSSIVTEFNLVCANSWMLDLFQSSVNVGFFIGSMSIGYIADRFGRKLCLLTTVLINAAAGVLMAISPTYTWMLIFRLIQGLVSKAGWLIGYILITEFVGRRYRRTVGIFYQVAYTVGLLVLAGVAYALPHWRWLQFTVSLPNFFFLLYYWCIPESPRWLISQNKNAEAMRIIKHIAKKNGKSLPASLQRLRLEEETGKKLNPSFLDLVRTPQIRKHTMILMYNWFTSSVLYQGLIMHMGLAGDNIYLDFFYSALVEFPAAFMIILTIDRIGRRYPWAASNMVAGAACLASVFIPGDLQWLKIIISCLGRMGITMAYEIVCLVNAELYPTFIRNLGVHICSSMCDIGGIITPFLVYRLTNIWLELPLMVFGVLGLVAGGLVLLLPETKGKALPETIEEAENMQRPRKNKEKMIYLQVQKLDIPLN
In words: Transporter inhibition using transfected HEK293 cells. The note with it: IC50, [14C]Metformin (20 µM).

Data set [7] concerns SARS-CoV-2 Belgium/GHB-03021/2020 strain. Nature of the data set: microbe, parasite or virus in culture. It is filed as cell-based. Set-up: Percent Effect: scale not given: direction of the effect not stated beside the values.
Setting [8] is: human, human liver microsomes, pH 7.4, probe midazolam (mdz), Percent of Control Activity, CYP 3A4/5 (mdz), 30-Minute Preincubation.
Setting [9] is: human, human liver microsomes, pH 7.4, probe midazolam (mdz), Percent of Control Activity, CYP 3A4/5 (mdz), Zero-Minute Preincubation.

Consider 2 compounds from publication PMC8523698, “Preclinical characterization of an intravenous coronavirus 3CL protease inhibitor for the potential treatment of COVID19” (Nature Communications, 2021).

The structures appear in SMILES notation. pIC50: −log10 of the molar value. Values joined by “and” are separate entries in the source; they are usually repeats but may differ in a detail not shown here. Equal entries are not always repeated.

Take `COc1cccc2[nH]c(C(=O)N[C@@H](CC(C)C)C(=O)N[C@@H](C[C@@H]3CCNC3=O)C(=O)COP(=O)(O)O)cc12` [PF-07304814]: the Individual fraction unbound in data set [1] (3.44 uM, replicates Day 1-3) is 0.199 and 0.194 and 0.181 and 0.192 and 0.178 and 0.182 and 0.198 and 0.168 and 0.191 and 0.180 and 0.167; in [3] (Beagle, male and female, Day 1), 0.288 and 0.267 and 0.276; in data set [3] (Beagle, male and female, Day 2) it was 0.33 and 0.389 and 0.349; in data set [3] (Beagle, male and female, Day 3), 0.301 and 0.285 and 0.313. In addition, the fraction unbound (usually free concentration divided by total concentration) at 6 h, 3.44 uM in [1] (pH 7.4, Fraction unbound, Geomean, 3.44 uM, n 12) was determined as 0.184; in [1] (pH 7.4, Individual fraction unbound, 3.44 uM, replicates Day 1-3), 0.186; in data set [1] (pH 7.4, fraction unbound Geomean, 3.44 uM, n=12) it was 0.184; in data set [3] (both, Beagle, pH 7.4, Individual fraction unbound, Beagle, male and female, Day 1) it was 0.322; in [3] (both, Beagle, pH 7.4, Individual fraction unbound, Beagle, male and female, Day 2), 0.344; in [3] (both, Beagle, pH 7.4, Individual fraction unbound, Beagle, male and female, Day 3), 0.303. In data set [3] (pH 7.4, fraction unbound Geomean, n=12), this compound came in with a fraction unbound at 6 h, 3.44 uM of 0.312. Also, the fraction unbound at 6 h is 0.184 in data set [1] (pH 7.4, Measured plasma fu / Human plasma fu) and 0.184 in [1] (pH 7.4, Unbound fraction fu (%CV)). Further, the “Percent of Control Activity” value with CYP3A4/5 [2] (CYP 3A4/5 (mdz), 0.01 µM, 30-Minute Preincubation) worked out at 103.5%; in the data set on CYP3A4/5 [2] (CYP 3A4/5 (mdz), 15.8 µM, Zero-Minute Preincubation) it was 105.7%; in the data set with CYP3A4/5 [2] (CYP 3A4/5 (mdz), 39.8 µM, 30-Minute Preincubation), 99.7%; with CYP3A4/5 [2] (CYP 3A4/5 (mdz), 100 µM, 30-Minute Preincubation), 95.6%; with CYP3A4/5 [2] (CYP 3A4/5 (mdz), 100 µM, Zero-Minute Preincubation), 100.4%. For the same compound, the negative logarithm of the IC50 (pIC50) (usually the IC50 on a negative log10 scale, so that one unit is a factor of ten) with CYP3A4/5 [2] (human, human liver microsomes, T0) was less than 4.00; in the data set with CYP3A4/5 [2] (human, human liver microsomes, T30), less than 4.00; against OCT1 it was less than 3.52; on OCT2 it was less than 3.52. Further, the activity at 0.01 µM in the data set on CYP3A4/5 [2] (human, human liver microsomes, pH 7.4, probe midazolam (mdz), Percent of Control Activity, CYP 3A4/5 (mdz), 0.01 µM, Zero-Minute Preincubation) amounted to 96.3%. Moreover, the activity at 0.158 µM was determined as 103% with CYP3A4/5 [2] (setting [8]) and 95% in the data set on CYP3A4/5 [2] (setting [9]). Besides, the activity at 0.398 µM in the data set with CYP3A4/5 [2] (human, human liver microsomes, pH 7.4, probe midazolam (mdz), Percent of Control Activity, CYP 3A4/5 (mdz), 0.398 µM, 30-Minute Preincubation) is 100%. In addition, the activity at 1 µM with CYP3A4/5 [2] (setting [8]) is 100%; in the data set on CYP3A4/5 [2] (setting [9]) it was 99.8%. Moreover, in the data set with CYP3A4/5 [2] (human, human liver microsomes, pH 7.4, probe midazolam (mdz), Percent of Control Activity, CYP 3A4/5 (mdz), 15.8 µM, Zero-Minute Preincubation), the activity at 15.8 µM came to 101%. Also, the activity at 100 µM in the data set with CYP3A4/5 [2] (human, human liver microsomes, pH 7.4, probe midazolam (mdz), Percent of Control Activity, CYP 3A4/5 (mdz), 100 µM, 30-Minute Preincubation) amounted to 95%. For the same compound, the no-observed-adverse-effect level (NOAEL) (usually the highest dose or exposure tested at which no adverse effect was seen) at 24 h in data set [4] (both sexes, Sprague-Dawley, 24 h continuous IV infusion, read-out: no observed adverse effect level (NOAEL)) is 1000 mg/kg. Also, the toxicity findings entry in data set [4] is recorded as “no test article related findings”. Further, the “hemolysis or flocculation/turbidity parameters” value in data set [5] is given as “no effect on hemolysis or flocculation/turbidity parameters”. In addition, the “time-dependent inhibition (TDI) signal” value in the data set with CYP3A4/5 [6] is “no evidence of TDI”.
Take `COc1cccc2[nH]c(C(=O)N[C@@H](CC(C)C)C(=O)N[C@@H](C[C@@H]3CCNC3=O)C(=O)CO)cc12` [PF-00835231-00]: the “Percent Effect” value in data set [7] was 0.59%.
